# Test results as given in US20120010075A1 (priority 2009, published 2012).
# Key:
# [1] = system: Leptosphaeria nodorum (LEPTNO); experiment: In vitro fungitoxicity of hydrazones with and without copper towards Leptosphaeria nodorum (Example 26); type: cell-based; details: compound 0.05 μg/mL, 72 h at 25° C.; for inhibition of growth at 0.05 µg/mL: Parastagonospora nodorum, 72 h, read-out: LEPTNO % Inhn. Minus Copper Observed; for inhibition of growth at 0.05 µg/mL / LEPTNO % Inhn. Minus Copper Observed: copper-minus medium; for LEPTNO % Inhn. Plus Copper Observed: copper-plus medium (CuCl2.2H2O)
# Phytophthora infestans = type: in vivo, Phytophthora infestans on tomato; details: hydrazone 50 ppm + 50 μM CuCl2.2H2O, applied 24 h before inoculation, assessed 7 days after inoculation, tomato
smiles,measurement,setting,value
O=C(N/N=C/c1ccccc1O)c1ccc(Cl)cc1 [Example 2],inhibition of growth at 0.05 µg/mL,[1],0%
same,LEPTNO % Inhn. Plus Copper Observed,[1],95.1%
same,TLB % Control,Phytophthora infestans,61.4%
O=C(N/N=C/c1c(O)ccc2ccccc12)c1ccccc1 [Example 4],inhibition of growth at 0.05 µg/mL,[1],4.4%
same,LEPTNO % Inhn. Plus Copper Observed,[1],94.5%
same,TLB % Control,Phytophthora infestans,67.8%
O=C(N/N=C/c1cc(Br)ccc1O)c1ccc2c(c1)OCO2 [Example 7],inhibition of growth at 0.05 µg/mL,[1],2.6%
same,LEPTNO % Inhn. Plus Copper Observed,[1],97.2%
same,TLB % Control,Phytophthora infestans,54.6%
Cc1ccc(C(=O)N/N=C/c2ccccc2O)cc1 [Example 8],inhibition of growth at 0.05 µg/mL,[1],0%
same,LEPTNO % Inhn. Plus Copper Observed,[1],92.6%
same,TLB % Control,Phytophthora infestans,59.6%
Cc1ccc([N+](=O)[O-])c(C(=O)N/N=C/c2cc(Cl)cc(Cl)c2O)c1 [Example 9],inhibition of growth at 0.05 µg/mL,[1],0%
same,LEPTNO % Inhn. Plus Copper Observed,[1],93.6%
same,TLB % Control,Phytophthora infestans,67.3%
C/C(=N\NC(=O)c1ccc(C(F)(F)F)cc1)c1ccccc1O [Example 11],inhibition of growth at 0.05 µg/mL,[1],0.3%
same,LEPTNO % Inhn. Plus Copper Observed,[1],97.2%
same,TLB % Control,Phytophthora infestans,42.1%
C/C(=N\NC(=O)c1cccc(I)c1)c1ccccc1O [Example 13],LEPTNO % Inhn. Minus Copper Observed,[1],0.0%
same,LEPTNO % Inhn. Plus Copper Observed,[1],96.2%
same,TLB % Control,Phytophthora infestans,33.3%
CCOc1ccc(C(=O)N/N=C(\C)c2ccccc2O)cc1 [Example 18],inhibition of growth at 0.05 µg/mL,[1],0%
same,LEPTNO % Inhn. Plus Copper Observed,[1],96.9%
same,TLB % Control,Phytophthora infestans,38.6%
O=C(N/N=C/c1cc(Br)ccc1O)c1ccccc1Oc1ccccc1 [Example 19],inhibition of growth at 0.05 µg/mL,[1],2.9%
same,LEPTNO % Inhn. Plus Copper Observed,[1],88.8%
same,TLB % Control,Phytophthora infestans,25.0%
O=C(N/N=C/c1cc(Cl)cc(Cl)c1O)c1ccc(F)cc1 [Example 22],inhibition of growth at 0.05 µg/mL,[1],16%
same,LEPTNO % Inhn. Plus Copper Observed,[1],97.6%
same,TLB % Control,Phytophthora infestans,93.2%
C/C(=N\NC(=O)c1cccc(F)c1)c1ccccc1O [Example 25],inhibition of growth at 0.05 µg/mL,[1],0%
same,LEPTNO % Inhn. Plus Copper Observed,[1],97.3%
same,TLB % Control,Phytophthora infestans,35.1%
C/C(=N\NC(=O)c1cccc(I)c1)c1ccccc1O [Example 26],LEPTNO % Inhn. Minus Copper Observed,[1],2.1%
same,LEPTNO % Inhn. Plus Copper Observed,[1],98.4%
same,TLB % Control,Phytophthora infestans,12.3%
C/C(=N\NC(=O)c1ccc(C)cc1C)c1ccccc1O [Example 29],inhibition of growth at 0.05 µg/mL,[1],0%
same,LEPTNO % Inhn. Plus Copper Observed,[1],98.0%
same,TLB % Control,Phytophthora infestans,50.8%
C/C(=N\NC(=O)c1ccc(C)cc1)c1ccccc1O [Example 36],inhibition of growth at 0.05 µg/mL,[1],5.9%
same,LEPTNO % Inhn. Plus Copper Observed,[1],98.4%
same,TLB % Control,Phytophthora infestans,33.9%
C/C(=N\NC(=O)c1cccc([N+](=O)[O-])c1)c1ccccc1O [Example 37],inhibition of growth at 0.05 µg/mL,[1],3.3%
same,LEPTNO % Inhn. Plus Copper Observed,[1],97.0%
same,TLB % Control,Phytophthora infestans,33.0%
C/C(=N\NC(=O)c1cccc(C)c1)c1ccccc1O [Example 38],inhibition of growth at 0.05 µg/mL,[1],2.4%
same,LEPTNO % Inhn. Plus Copper Observed,[1],98.3%
same,TLB % Control,Phytophthora infestans,17.0%
C/C(=N\NC(=O)c1cc(C)cc(C)c1)c1ccccc1O [Example 39],inhibition of growth at 0.05 µg/mL,[1],1.3%
same,LEPTNO % Inhn. Plus Copper Observed,[1],97.9%
same,TLB % Control,Phytophthora infestans,18.6%
C/C(=N\NC(=O)c1ccc(C(C)C)cc1)c1ccccc1O [Example 40],inhibition of growth at 0.05 µg/mL,[1],0%
same,LEPTNO % Inhn. Plus Copper Observed,[1],94.8%
same,TLB % Control,Phytophthora infestans,64.9%
CC/C(=N\NC(=O)c1ccccc1Cl)c1ccccc1O [Example 50],inhibition of growth at 0.05 µg/mL,[1],3.5%
same,LEPTNO % Inhn. Plus Copper Observed,[1],97.4%
same,TLB % Control,Phytophthora infestans,43.5%
C/C(=N\NC(=O)c1ccccc1N)c1ccccc1O [Example 51],inhibition of growth at 0.05 µg/mL,[1],0%
same,LEPTNO % Inhn. Plus Copper Observed,[1],97.6%
same,TLB % Control,Phytophthora infestans,4.8%
COc1cccc(C(=O)N/N=C(\C)c2ccccc2O)c1 [Example 53],inhibition of growth at 0.05 µg/mL,[1],0%
same,LEPTNO % Inhn. Plus Copper Observed,[1],96.8%
same,TLB % Control,Phytophthora infestans,62.0%
C/C(=N\NC(=O)c1ccc(Cl)cc1)c1ccccc1O [Example 54],inhibition of growth at 0.05 µg/mL,[1],0%
same,LEPTNO % Inhn. Plus Copper Observed,[1],95.7%
same,TLB % Control,Phytophthora infestans,17.0%
C/C(=N\NC(=O)c1ccc(C(C)(C)C)cc1)c1ccccc1O [Example 55],inhibition of growth at 0.05 µg/mL,[1],0%
same,LEPTNO % Inhn. Plus Copper Observed,[1],95.5%
same,TLB % Control,Phytophthora infestans,43.9%
C/C(=N\NC(=O)c1ccc(F)cc1)c1cc(Cl)cc(Cl)c1O [Example 59],inhibition of growth at 0.05 µg/mL,[1],12.8%
same,LEPTNO % Inhn. Plus Copper Observed,[1],97.5%
same,TLB % Control,Phytophthora infestans,79.7%
C/C(=N\NC(=O)c1ccc(F)cc1)c1ccccc1O [Example 62],inhibition of growth at 0.05 µg/mL,[1],0%
same,LEPTNO % Inhn. Plus Copper Observed,[1],96.3%
same,TLB % Control,Phytophthora infestans,56.1%
C/C(=N\NC(=O)c1cccc(Br)c1)c1ccccc1O [Example 63],inhibition of growth at 0.05 µg/mL,[1],0%
same,LEPTNO % Inhn. Plus Copper Observed,[1],96.7%
same,TLB % Control,Phytophthora infestans,40.4%
C/C(=N\NC(=O)c1ccccc1Br)c1ccccc1O [Example 64],inhibition of growth at 0.05 µg/mL,[1],0%
same,LEPTNO % Inhn. Plus Copper Observed,[1],97.8%
same,TLB % Control,Phytophthora infestans,43.0%
C/C(=N\NC(=O)c1cccc(Cl)c1)c1ccccc1O [Example 65],inhibition of growth at 0.05 µg/mL,[1],0%
same,LEPTNO % Inhn. Plus Copper Observed,[1],98.3%
same,TLB % Control,Phytophthora infestans,10.0%
C/C(=N\NC(=O)c1ccccc1C)c1ccccc1O [Example 66],inhibition of growth at 0.05 µg/mL,[1],0.1%
same,LEPTNO % Inhn. Plus Copper Observed,[1],97.4%
same,TLB % Control,Phytophthora infestans,51.0%
O=C(N/N=C/c1cc(Cl)cc(Cl)c1O)c1cccc(Br)c1 [Example 71],inhibition of growth at 0.05 µg/mL,[1],2.6%
same,LEPTNO % Inhn. Plus Copper Observed,[1],91.2%
same,TLB % Control,Phytophthora infestans,78.0%
Cc1ccc(C(=O)N/N=C/c2cc(Cl)cc(Cl)c2O)cc1 [Example 72],inhibition of growth at 0.05 µg/mL,[1],14.1%
same,LEPTNO % Inhn. Plus Copper Observed,[1],91.3%
same,TLB % Control,Phytophthora infestans,81.3%
COc1ccc(C(=O)N/N=C/c2cc(Cl)cc(Cl)c2O)cc1 [Example 75],inhibition of growth at 0.05 µg/mL,[1],0%
same,LEPTNO % Inhn. Plus Copper Observed,[1],98.4%
same,TLB % Control,Phytophthora infestans,15.8%
O=C(N/N=C/c1cc(Cl)cc(Cl)c1O)c1ccc(Cl)cc1Cl [Example 78],inhibition of growth at 0.05 µg/mL,[1],7.9%
same,LEPTNO % Inhn. Plus Copper Observed,[1],96.3%
same,TLB % Control,Phytophthora infestans,70.9%
O=C(N/N=C/c1cc(Cl)cc(Cl)c1O)c1ccc(Br)cc1 [Example 80],inhibition of growth at 0.05 µg/mL,[1],0%
same,LEPTNO % Inhn. Plus Copper Observed,[1],98.4%
same,TLB % Control,Phytophthora infestans,91.5%
COc1cccc(C(=O)N/N=C/c2cc(Cl)cc(Cl)c2O)c1 [Example 82],inhibition of growth at 0.05 µg/mL,[1],8.4%
same,LEPTNO % Inhn. Plus Copper Observed,[1],97.4%
same,TLB % Control,Phytophthora infestans,60.6%
COc1ccc(C(=O)N/N=C/c2cc(Cl)cc(Cl)c2O)cc1OC [Example 85],inhibition of growth at 0.05 µg/mL,[1],5.3%
same,LEPTNO % Inhn. Plus Copper Observed,[1],90.0%
same,TLB % Control,Phytophthora infestans,51.5%
CC(C)(C)c1ccc(C(=O)N/N=C/c2cc(Cl)cc(Cl)c2O)cc1 [Example 87],inhibition of growth at 0.05 µg/mL,[1],8.1%
same,LEPTNO % Inhn. Plus Copper Observed,[1],98.6%
same,TLB % Control,Phytophthora infestans,69.5%
COc1cc(OC)cc(C(=O)N/N=C/c2cc(Cl)cc(Cl)c2O)c1 [Example 88],inhibition of growth at 0.05 µg/mL,[1],10.7%
same,LEPTNO % Inhn. Plus Copper Observed,[1],96.7%
same,TLB % Control,Phytophthora infestans,4.8%
O=C(N/N=C/c1cc(Cl)cc(Cl)c1O)c1cccc(F)c1 [Example 89],inhibition of growth at 0.05 µg/mL,[1],17.5%
same,LEPTNO % Inhn. Plus Copper Observed,[1],95.9%
same,TLB % Control,Phytophthora infestans,85.8%
O=C(N/N=C/c1cc(Cl)cc(Cl)c1O)c1ccccc1Oc1ccccc1 [Example 90],inhibition of growth at 0.05 µg/mL,[1],9.5%
same,LEPTNO % Inhn. Plus Copper Observed,[1],96.4%
same,TLB % Control,Phytophthora infestans,54.6%
O=C(N/N=C/c1cc(Cl)cc(Cl)c1O)c1ccccc1Cl [Example 93],inhibition of growth at 0.05 µg/mL,[1],6%
same,LEPTNO % Inhn. Plus Copper Observed,[1],95.2%
same,TLB % Control,Phytophthora infestans,77.2%
COc1ccccc1C(=O)N/N=C/c1cc(Cl)cc(Cl)c1O [Example 94],inhibition of growth at 0.05 µg/mL,[1],0%
same,LEPTNO % Inhn. Plus Copper Observed,[1],92.9%
same,TLB % Control,Phytophthora infestans,37.0%
Cc1cccc(C(=O)N/N=C/c2cc(Cl)cc(Cl)c2O)c1 [Example 95],inhibition of growth at 0.05 µg/mL,[1],14.1%
same,LEPTNO % Inhn. Plus Copper Observed,[1],94.0%
same,TLB % Control,Phytophthora infestans,81.2%
CN(C)c1ccc(C(=O)N/N=C/c2cc(Cl)cc(Cl)c2O)cc1 [Example 103],inhibition of growth at 0.05 µg/mL,[1],17.9%
same,LEPTNO % Inhn. Plus Copper Observed,[1],98.1%
same,TLB % Control,Phytophthora infestans,63.2%
CCOc1ccc(C(=O)N/N=C/c2cc(Br)cc(Br)c2O)cc1 [Example 104],inhibition of growth at 0.05 µg/mL,[1],27.7%
same,LEPTNO % Inhn. Plus Copper Observed,[1],98.2%
same,TLB % Control,Phytophthora infestans,70.2%
O=C(N/N=C/c1cc(Br)cc(Br)c1O)c1ccc(OC(F)(F)F)cc1 [Example 109],inhibition of growth at 0.05 µg/mL,[1],27.8%
same,LEPTNO % Inhn. Plus Copper Observed,[1],98.3%
same,TLB % Control,Phytophthora infestans,89.1%
O=C(N/N=C/c1cc(Br)cc(Br)c1O)c1ccccc1Cl [Example 112],inhibition of growth at 0.05 µg/mL,[1],8.1%
same,LEPTNO % Inhn. Plus Copper Observed,[1],97.8%
same,TLB % Control,Phytophthora infestans,78.2%
O=C(N/N=C/c1cc(Br)cc(Br)c1O)c1cccc(Br)c1 [Example 113],inhibition of growth at 0.05 µg/mL,[1],17%
same,LEPTNO % Inhn. Plus Copper Observed,[1],98.0%
same,TLB % Control,Phytophthora infestans,94.7%
COc1ccccc1C(=O)N/N=C/c1cc(Br)cc(Br)c1O [Example 114],inhibition of growth at 0.05 µg/mL,[1],0%
same,LEPTNO % Inhn. Plus Copper Observed,[1],36.9%
same,TLB % Control,Phytophthora infestans,7.5%
Cc1cccc(C(=O)N/N=C/c2cc(Br)cc(Br)c2O)c1 [Example 115],inhibition of growth at 0.05 µg/mL,[1],6.1%
same,LEPTNO % Inhn. Plus Copper Observed,[1],97.4%
same,TLB % Control,Phytophthora infestans,78.2%
O=C(N/N=C/c1cc(Br)cc(Br)c1O)c1ccccc1F [Example 116],inhibition of growth at 0.05 µg/mL,[1],8.4%
same,LEPTNO % Inhn. Plus Copper Observed,[1],98.2%
same,TLB % Control,Phytophthora infestans,88.8%
O=C(N/N=C/c1cc(Br)cc(Br)c1O)c1ccc(Br)cc1 [Example 118],inhibition of growth at 0.05 µg/mL,[1],10.6%
same,LEPTNO % Inhn. Plus Copper Observed,[1],98.3%
same,TLB % Control,Phytophthora infestans,85.3%
